The text below walks through data of patent US20060135501A1, “Piperidinyl-thiazole carboxylic acid derivatives as angiogenesis inhibitors” (priority 2002, published 2006).

pIC50: −log10 of the molar value. Where “and” joins values, the source holds several entries; their conditions need not be identical. Equal values may be shown once.

One assay addresses T1, rhVEGF165-biotin (Homo sapiens, UniProt P15692).
T1 sequence (P15692 27-191 isoform P15692-4): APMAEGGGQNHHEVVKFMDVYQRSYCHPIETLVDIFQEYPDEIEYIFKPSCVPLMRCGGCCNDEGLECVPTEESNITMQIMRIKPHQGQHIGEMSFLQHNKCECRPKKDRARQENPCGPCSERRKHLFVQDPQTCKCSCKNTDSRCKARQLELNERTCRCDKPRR
Nature of the assay: VEGF-Binding ELISA (dose-response). The procedure: The potency of test substances as a VEGF-neutralising moiety is measured in an ELISA format. This assay measures the solution-phase interaction between rhVEGF165-biotin and test sample. Unbound VEGF165-biotin is then immobilised on a solid-phase anti-hVEGF antibody (R&D systems MAB293). The biotin signal is detected with streptavidin-alkaline phosphatase, which gives a colorimetric signal when incubated with p-nitrophenyl phosphate. Plates are read in a spectrophotometer at 405 nm.
(§1) Any test compound that binds to VEGF165-biotin and prevents it from binding to the antibody will lower the color signal and be recognized as a “hit”. Hits were defined as compounds that show>60% inhibition.
VEGF165-biotin+assay buffer ? 0% inhibition
Soluble VEGF receptor (sflt @ 4 nM) ? 70% inhibition
(§2) The primary screening of all library compounds was done at a compound concentration of 50 μM, followed by measuring dose-response effects of “hits” between 0.05 and 500 μM for the calculation of IC50 values.
The compounds were dissolved in DMSO and it was shown that the solvent has no effect on the assay at this concentration.
On the technique in general: An ELISA detects its analyte on a solid surface through an enzyme-linked reagent.

The test system of assay [1] is human umbilical vein endothelial cells (HUVEC). Nature of the assay: HUVEC proliferation assay co-stimulated with rhVEGF. It is filed as cell-based. The procedure: The HUVEC assay measures the potency of test substances to inhibit in vitro proliferation of human umbilical vein endothelial cells (HUVEC) when co-stimulated with recombinant human vascular endothelial growth factor (rhVEGF).
HUVEC are grown under defined conditions (EGM-2 medium, 37° C., 5% CO2 and 95% humidity). They are seeded into 48-well plates using EBM medium with only 1% serum and incubated for 24 h. This is to ensure that cells are not stimulated before treatment with VEGF and test compound.
Test compounds are diluted in medium to concentrations between 0.05 and 50 μM and dosed together with VEGF165 at 12 ng/ml. This VEGF concentration was determined in a VEGF-dose-response curve to be just sub-optimal for maximum cell proliferation. Cells are incubated for 48 h at above conditions and viable cell density is measured using a tetrazolium compound (MTS). Viable cells reduce MTS into a soluble formazan product, which has an absorbance maximum at 490 nm. The absorbance is directly proportional to cell density.
EBM+1% serum (no VEGF) ? Minimum or Blank
EBM+1% serum (12 ng/ml) ? Maximum

A further assay concerns the target T2, VEGF (Homo sapiens, UniProt P15692).
T2 sequence (P15692 27-191 isoform P15692-4): T1 sequence (P15692 27-191 isoform P15692-4)
Nature of the assay: Initial medium throughput ELISA assay for inhibition of VEGF (primary screening). It is filed as binding. The settings on record: initial assessment, primary screening at compound concentration of 50 μM, repeats listed; for Inhibition (%): 50 µM. The method, then: Initially the compounds were assayed for inhibition of VEGF in a medium throughput ELISA assay before detailed assessment in the HUVEC and VEGF binding assays in examples in 9 and 10. The data from this initial assessment is presented in table 5 in the column labelled “Inhibition %”.
as §1, §2

The mark [2] stands for this setting: Homo sapiens, HUVEC, 48 h, Table 5, VEGF165 at 12 ng/ml, MTS, repeats listed.
Setting [3] is: Table 5, VEGF165 at 12 ng/ml, 48 h, MTS, repeats listed.
Setting [4] is: Table 6, first test (unmarked value).
Setting [5] is: Homo sapiens, HUVEC, Table 6, first test (unmarked value).

The pIC50 is −log10 of the IC50, conventionally taken in molar units. Read a high pIC50 as a small IC50. For `COc1ccc(C(N)=O)cc1NC(=O)c1csc(C2CCN(C(=O)c3c(-c4ccccc4)noc3C)CC2)n1` [Compound 1506-00404], the pIC50 was 3.82 on rhVEGF165-biotin (Table 5, repeats listed) and 4.98 in assay [1] (setting [2]).

In general, inhibition refers to the drop in the measured response relative to a control, in per cent. Consider `COc1ccc(C(N)=O)cc1NC(=O)c1csc(C2CCN(C(=O)c3nnc4cc(C)nn4c3C)CC2)n1` [Compound 1506-00581, N-[5-(aminocarbonyl)-2-methoxyphenyl]-2-{1-[(4,7-dimethylpyrazolo[5,1-c][1,2,4]triazin-3-yl)carbonyl]-4-piperidinyl}-1,3-thiazole-4-carboxamide], for which the inhibition at 50 µM at VEGF was 88%. In addition, the pIC50 at rhVEGF165-biotin (Table 5, repeats listed) is 5.36 and 5.30; in assay [1] (setting [2]) it was 4.52; in assay [1] (setting [3]), 4.51.

With `COc1ccc(C(N)=O)cc1NC(=O)c1csc(C2CCN(C(=O)Cc3c[nH]c4ccccc34)CC2)n1` [Compound 1506-00935], the pIC50 at rhVEGF165-biotin (Table 5, repeats listed) was 4.54.

With `COc1ccc(C(N)=O)cc1NC(=O)c1csc(C2CCN(C(=O)Cc3ccc(F)cc3)CC2)n1` [Compound 1506-01112], the pIC50 at rhVEGF165-biotin (Table 5, repeats listed) was 4.78; in assay [1] (setting [2]), 4.59.

Turning to `COc1ccc(C(N)=O)cc1NC(=O)c1csc(C2CCN(C(=O)c3cc4ccccc4o3)CC2)n1` [Compound 1506-01284, N-[5-(aminocarbonyl)-2-methoxyphenyl]-2-[1-(1-benzofuran-2-ylcarbonyl)-4-piperidinyl]-1,3-thiazole-4-carboxamide], the inhibition at 50 µM at VEGF is 85%. The pIC50 was 4.96 and 4.87 on rhVEGF165-biotin (Table 5, repeats listed); 5.00 in assay [1] (setting [2]); 4.90 in assay [1] (setting [3]).

Turning to `COc1ccc(C(N)=O)cc1NC(=O)c1csc(C2CCN(C(=O)C#Cc3ccccc3)CC2)n1` [Compound 1506-01461, N-[5-(aminocarbonyl)-2-methoxyphenyl]-2-[1-(3-phenyl-2-propynoyl)-4-piperidinyl]-1,3-thiazole-4-carboxamide], at VEGF, the inhibition at 50 µM is 88%; the “Inhibition (%)” value was 75% and 83%. The compound further showed a pIC50 at rhVEGF165-biotin (Table 5, repeats listed) of 5.40. The negative-log IC50 (pIC50) in assay [1] (setting [2]) is 4.96.

In the case of `COc1ccc(C(N)=O)cc1NC(=O)c1csc(C2CCN(C(=O)C3C(C)(C)C3(C)C)CC2)n1` [Compound 1506-01638], the inhibition at 50 µM on VEGF worked out at 89%. The pIC50 is 4.15 and < 4.00 on rhVEGF165-biotin (Table 5, repeats listed); 5.27 in assay [1] (setting [2]); 5.22 in assay [1] (setting [3]).

In the case of `COc1ccc(C(N)=O)cc1NC(=O)c1csc(C2CCN(C(=O)c3cc(OC)c4ccccc4c3)CC2)n1` [Compound 1506-01810], the pIC50 at rhVEGF165-biotin (Table 5, repeats listed) is 3.87; in assay [1] (setting [2]), 5.25.

Turning to `COCCOCCOCC(=O)N1CCC(c2nc(C(=O)Nc3cc(C(N)=O)ccc3OC)cs2)CC1` [Compound 1506-02159], the pIC50 on rhVEGF165-biotin (Table 5, repeats listed) was 3.89.

Consider `C=CCSc1ncccc1C(=O)N1CCC(c2nc(C(=O)Nc3cc(C(N)=O)ccc3OC)cs2)CC1` [Compound 1506-02331, 2-(1-{[2-(allylsulfanyl)-3-pyridinyl]carbonyl}-4-piperidinyl)-N-[5-(aminocarbonyl)-2-methoxyphenyl]-1,3-thiazole-4-carboxamide], for which the “Inhibition (%)” value on VEGF was 43% and 73% and 79%. The pIC50 was 5.19 at rhVEGF165-biotin (Table 5, repeats listed) and 4.64 in assay [1] (setting [2]).

For `COc1ccc(C(N)=O)cc1NC(=O)c1csc(C2CCN(C(=O)c3c(F)cccc3Cl)CC2)n1` [Compound 1506-03039], the pIC50 at rhVEGF165-biotin (Table 5, repeats listed) was 3.98; in assay [1] (setting [2]) it was 5.38.

Regarding `COc1ccc(C(N)=O)cc1NC(=O)c1csc(C2CCN(C(=O)c3ccc(OC)c(OC)c3OC)CC2)n1` [Compound 1506-03211], the pIC50 on rhVEGF165-biotin (Table 5, repeats listed) is 3.88.

Turning to `COc1ccc(C(N)=O)cc1NC(=O)c1csc(C2CCN(C(=O)c3ccccc3C(F)(F)F)CC2)n1` [Compound 1506-03388], at VEGF, the inhibition at 50 µM was determined as 93%; the “Inhibition (%)” value is 87% and 90%. This compound also had a pIC50 at rhVEGF165-biotin (Table 5, repeats listed) of 5.18. The compound also showed a pIC50 in assay [1] (setting [2]) of 4.64.

In the case of `COc1ccc(C(=O)N2CCC(c3nc(C(=O)Nc4cc(C(N)=O)ccc4OC)cs3)CC2)cc1` [Compound 1506-03560], the pIC50 on rhVEGF165-biotin (Table 5, repeats listed) is 5.44; in assay [1] (setting [2]) it was 4.79.

Turning to `COc1ccc(C(N)=O)cc1NC(=O)c1csc(C2CCN(C(=O)Cc3ccccc3Cl)CC2)n1` [Compound 1506-03737, N-[5-(aminocarbonyl)-2-methoxyphenyl]-2-{1-[(2-chlorophenyl)acetyl]-4-piperidinyl}-1,3-thiazole-4-carboxamide], at VEGF, the inhibition at 50 µM is 60%; the “Inhibition (%)” value is 70% and 74%. Further, the pIC50 in assay [1] (setting [2]) was 5.05.

In turn, `COc1ccc(C(N)=O)cc1NC(=O)c1csc(C2CCN(C(=O)COc3ccc(C)c(C)c3)CC2)n1` [Compound 1506-03914, N-[5-(aminocarbonyl)-2-methoxyphenyl]-2-{1-[(3,4-dimethylphenoxy)acetyl]-4-piperidinyl}-1,3-thiazole-4-carboxamide] showed an inhibition at 50 µM on VEGF of 77%. For the same compound, the “Inhibition (%)” value on VEGF was 70% and 81%. For the same compound, the pIC50 at rhVEGF165-biotin (Table 5, repeats listed) was 5.35; in assay [1] (setting [2]), 4.77.

Regarding `COc1ccc(C(N)=O)cc1NC(=O)c1csc(C2CCN(C(=O)c3ccc(OC(C)C)cc3)CC2)n1` [Compound 1506-04091], at rhVEGF165-biotin (Table 5, repeats listed), the pIC50 is 4.80 and 4.81.

On VEGF, `COc1ccc(C(N)=O)cc1NC(=O)c1csc(C2CCN(C(=S)Nc3ccc(N(C)C)cc3)CC2)n1` [Compound 1506-06813, N-[5-(aminocarbonyl)-2-methoxyphenyl]-2-[1-({[4-(dimethylamino)phenyl]amino}carbonothioyl)-4-piperidinyl]-1,3-thiazole-4-carboxamide] registered an inhibition at 50 µM of 88%. Moreover, the pIC50 is 5.14 and 5.82 at rhVEGF165-biotin (Table 5, repeats listed); 5.01 in assay [1] (setting [2]); 5.09 in assay [1] (setting [3]).

Consider `CC#CCOC(=O)N1CCC(c2nc(C(=O)Nc3cc(C(N)=O)ccc3OC)cs2)CC1` [Compound 1506-07095], for which, at rhVEGF165-biotin (Table 5, repeats listed), the pIC50 is 3.76.

As for `COc1ccc(C(N)=O)cc1NC(=O)c1csc(C2CCN(C(=O)NCCC3=CCCCC3)CC2)n1` [Compound 1506-07554], the pIC50 at rhVEGF165-biotin (Table 5, repeats listed) is 3.85; in assay [1] (setting [2]), 4.46.

Take `COc1ccc(C(N)=O)cc1NC(=O)c1csc(C2CCN(C(=O)N3CCN(c4ccccn4)CC3)CC2)n1` [Compound 1506-08218, N-[5-(aminocarbonyl)-2-methoxyphenyl]-2-(1-{[4-(2-pyridinyl)-1-piperazinyl]carbonyl}-4-piperidinyl)-1,3-thiazole-4-carboxamide]: at VEGF, the inhibition at 50 µM stood at 52%; the “Inhibition (%)” value is 60% and 62%. The compound also showed a pIC50 on rhVEGF165-biotin (Table 5, repeats listed) of 4.83. In assay [1] (setting [2]), this compound had a negative logarithm of the IC50 (pIC50) of 4.81.

On to `COc1ccc(C(N)=O)cc1NC(=O)c1csc(C2CCN(C(=O)Cc3ccc(SC)cc3)CC2)n1` [Compound 1506-08674], for which, at rhVEGF165-biotin (Table 5, repeats listed), the pIC50 is 4.96.

`COc1ccc(C(N)=O)cc1NC(=O)c1csc(C2CCN(C(=O)c3cnn(-c4ccccc4)c3)CC2)n1` [Compound 1506-08772] yielded an inhibition at 50 µM at VEGF of 91%. Moreover, the pIC50 on rhVEGF165-biotin (Table 5, repeats listed) is 4.27 and 3.90; in assay [1] (setting [2]), 4.60.

Take `NC(=O)c1ccc(Cl)c(NC(=O)c2csc(C3CCN(C(=O)Cc4ccccc4Cl)CC3)n2)c1` [Compound 1633-00375]: the pIC50 on rhVEGF165-biotin (Table 6, **tested after re-synthesised, $solubility problems) was 5.05; at rhVEGF165-biotin (setting [4]), 5.30; in assay [1] (Homo sapiens, HUVEC, Table 6, **tested after re-synthesised, $solubility problems), 4.77; in assay [1] (setting [5]) it was 6.35.

As to `NC(=O)c1ccc(Cl)c(NC(=O)c2csc(C3CCN(C(=O)CCc4ccco4)CC3)n2)c1` [Compound 1633-00377], the negative-log IC50 (pIC50) at rhVEGF165-biotin (setting [4]) is 5.30; in assay [1] (setting [5]), 6.65.

Regarding `C=CCCOc1ccc(C(=O)N2CCC(c3nc(C(=O)Nc4cc(C(N)=O)ccc4Cl)cs3)CC2)cc1` [Compound 1633-00884], the negative logarithm of the IC50 (pIC50) was 4.52 on rhVEGF165-biotin (setting [4]) and 6.19 in assay [1] (setting [5]).

With `NC(=O)Cc1ccc(Cl)c(NC(=O)c2csc(C3CCN(C(=O)CCc4ccco4)CC3)n2)c1` [Compound 1633-01861], the pIC50 was 4.89 at rhVEGF165-biotin (setting [4]) and 6.10 in assay [1] (setting [5]).
